Data taken from patent publication US20190247371A1, “METHODS FOR TREATING SMALL CELL LUNG CANCERS BY USING PHARMACEUTICAL COMPOSITIONS OR COMBINATIONS COMPRISING INDOLIZINO[6,7-B]INDOLE DERIVATIVES” (priority 2016, published 2019).
Read-outs that look alike come from different tables or passages of the source.

Tests used:
H82 cells = assay: alamarBlue cytotoxicity assay, SCLC H82 cells; type: cell-based; conditions: read-out: IC50, concentration required to inhibit cell growth by 50%
Protocol: (§1) The inhibitory effect of BO-1978 on the cell growth of SCLC cell lines in vitro was examined. The cytotoxicity was assayed using alamarBlue® reagent (AbD Serotec) as previously described in U.S. Pat. No. 8,703,951 B2. In brief, H82, H211 and H526 cells were seeded to a 96 well plate with 5000, 1000 and 3000 cells per well, respectively, and incubated for 24 h. The growing cells were treated with BO-1978, cisplatin, etoposide or irinotecan at serial-diluted concentrations for 72 h at 37° C. An aliquot of alamarBlue® reagent (AbD Serotec) was added and the cultures were incubated for 5 h. The fluorescence at excitation 530 nm and emission 590 nm was read with a plate reader. The proliferation rate was calculated according to the manufacturer's instruction. The values of IC50 (50% inhibition concentration) for each compound were determined from dose-effect relationship using the CompuSyn software (Chou 2010^44).

H211 cells [1] = assay: alamarBlue cytotoxicity assay, SCLC H211 cells; type: cell-based; conditions: read-out: IC50, concentration required to inhibit cell growth by 50%
Protocol: as §1

H526 cells [2] = assay: alamarBlue cytotoxicity assay, SCLC H526 cells; type: cell-based; conditions: read-out: IC50, concentration required to inhibit cell growth by 50%
Protocol: as §1

SCLC H526 cells = assay: SCLC H526 tumor xenograft model, single agents; type: in vivo; conditions: for body weight change: doses within MTD: BO-1978 40 mg/kg QD×5, etoposide 10 mg/kg Q2D×3, irinotecan 30 mg/kg QD×6, cisplatin 6 mg/kg Q4D×3, FIG. 2B
Protocol: H526 cells (1×10^7) were subcutaneously implanted into nude mice. […] Tumor size and body weight were taken at the time indicated. A, average tumor size changes; B, average body weight changes; and C, Kaplan-Meyer survival curves.
The animals used in this study were treated exactly according to the guidelines of the Academia Sinica Institutional Animal Care and Utilization Committee. Male athymic nude mice in 5 weeks of age were obtained from the National Laboratory Animal Center (Taipei, Taiwan) and housed for 1 week before performing experiments H526 cells (1×10^7) were subcutaneously implanted into nude mice (five groups, each 4 mice). […] Etoposide (10 mg/kg Q2D×3), irinotecan (30 mg/kg QD×6), and cisplatin (6 mg/kg Q4D×3) were used as the positive control and were administered as indicated.

SCLC H526 xenografts = assay: SCLC H526 xenograft, BO-1978 and irinotecan alone or in combination; type: in vivo, nude mice
Protocol: H526 cells (1×10^7) were subcutaneously implanted into nude mice. When tumor size reached 100-200 mm^3, BO-1978 and irinotecan, either alone or in combination were i.v. administered as indicated. Tumor size and body weight were taken at the time indicated A, tumor size; and B, body weight.
The mice (n=5) bearing SCLC H526 xenografts were treated with BO-1978 (alone, 40 mg/kg, Q2D×5), irinotecan (alone, 30 mg/kg, Q2D×5), and BO-1978 (40 mg/kg)+irinotecan (30 mg/kg) (Q2D×5) via iv inj.

SCLC H211 cells [3] = assay: SCLC H211 tumor xenograft model, single agents; type: in vivo, nude mice; conditions: same dosages and route as H526 study, FIG. 3
Protocol: H211 (3×10^6) were subcutaneously implanted into nude mice. When rumor size reached 100-200 mm^3, BO-1978, etoposide, irinotecan, and cisplatin were i.v. administered as indicated. Tumor size and body weight were taken at the time indicated. A, tumor size; and B, body weight.
In another experiment, the effect of BO-1978 on the inhibition of SCLC H211 cells, a fast growing cell line, was evaluated in xenograft model. Mice were treated with the tested compounds under the same dosages and administration route as described above.

H526 cells [4] = assay: alamarBlue combined treatment cytotoxicity, H526 cells; type: cell-based; conditions: co-treated with irinotecan at various ratios, 72 h, FIG. 4
Protocol: Cell survival was analyzed using alamarBlue assay. CI indicates combination index A, BO-1978 and cisplatin; B, BO-1978 and etoposide; and C, BO-1978 and irinotecan.
(§2) Combination therapy is therapy that uses more than one drug for therapy. […] The resulting combination index (CI) theorem of Chou-Talalay offers quantitative definition for additive effect (CI=1), synergism (CI<1), and antagonism (CI>1) in drug combinations (Chou 2010^44).

H211 cells [5] = assay: alamarBlue combined treatment cytotoxicity, H211 cells; type: cell-based; conditions: co-treated with irinotecan at various ratios, 72 h, FIG. 5
Protocol: H211 cells were seeded and treated with various concentrations of BO-1978, or therapeutic agents either alone or in combination for 72 h. Cell survival was analyzed using alamarBlue assay. CI indicates combination index. A, BO-1978 and cisplatin; B, BO-1978 and etoposide; and C, BO-1978 and irinotecan.
as §2

SCLC H211 = SCLC H211 xenograft, BO-1978 and irinotecan alone or in combination; type: in vivo, nude mice
Description: H211 cells (3×10^6) were subcutaneously implanted into nude mice. When tumor size reached 100-200 mm^3, BO-1978 and irinotecan, cither alone or in combination were i.v. administered as indicated. Tumor size and body weight were taken at the time indicated. A, tumor size; and B, body weight.
In another experiment, the therapeutic efficacy of BO-1978 (alone) or in combination with irinotecan against SCLC H211 was investigated in xenograft models (FIG. 7). The H211 bearing mice (n=5) were administered with BO-1978 (alone, 40 mg/kg, QD×5), irinotecan (alone, 30 mg/kg, QD×5), and BO-1978 (40 mg/kg)+irinotecan (30 mg/kg) (QD×5) via iv inj.

SCLC H211 cells [6] = assay: Cell cycle analysis by flow cytometry, H211 cells; type: cell-based; conditions: 24, 48, 72 h, FIG. 9
Protocol: H211 cells were treated with various concentrations of (A) BO-1978, (B) BMN-673, or (C) BO-1978 plus BMN-673 at 24, 48, and 72 h. At the end of treatment, the cells were harvested by trypsinization, fixed in ice-cold ethanol, stained with propidium iodide, and subjected to cell cycle analysis with a flow cytometer.
In the present invention, the SCLC H211 cells were treated with the combination of BO-1978 and BMN 673 or HY-10130 for 72 h. Cell survival was analyzed by PrestoBlue Assay. The combination index (CI) was calculated using CompuSyn software (Chou 2006^61).

NSCLC cells = conditions: in vitro; cited from earlier work
[7] = test system: EGFR wild-type and mutant NSCLC tumors; conditions: cited from earlier work
[8] = preclinical toxicity studies; cited from earlier work
PC9/gef B4 cells = conditions: cited from earlier work

## CCc1c2c(nc3ccc(OC(=O)N4CCC(N5CCCCC5)CC4)cc13)-c1cc3c(c(=O)n1C2)COC(=O)[C@]3(O)CC [Irinotecan]
H82 cells; Homo sapiens, NCI-H82, 72 h
  IC50: 1200 ± 70 nM
H211 cells [1]; Homo sapiens, NCI-H211, 72 h
  IC50: 30 ± 10 nM
H526 cells [2]; Homo sapiens, NCI-H526, 72 h
  IC50: 1180 ± 570 nM
SCLC H526 cells
  day mice were sacrificed because tumor size was over 2,500 mm^3: 45 days
  body weight change: did not cause body weight lost
SCLC H526 xenografts; 30 mg/kg Q2D×5 iv
  day of tumor relapse: 15 days

## COc1cc([C@@H]2c3cc4c(cc3[C@@H](O[C@@H]3O[C@@H]5CO[C@@H](C)O[C@H]5[C@H](O)[C@H]3O)[C@H]3COC(=O)[C@H]23)OCO4)cc(OC)c1O [Etoposide]
H82 cells; Homo sapiens, NCI-H82, 72 h
  IC50: 146 ± 2 nM
H211 cells [1]; Homo sapiens, NCI-H211, 72 h
  IC50: 70 ± 30 nM
H526 cells [2]; Homo sapiens, NCI-H526, 72 h
  IC50: 50 ± 20 nM
SCLC H526 cells
  day mice were sacrificed because tumor size was over 2,500 mm^3: 35 days
  body weight change: did not cause body weight lost

## CCc1c(CO)c(CO)c2n1Cc1c(c3ccccc3n1C)C2 [BO-1978, [3-ethyl-6-methyl-6,11-dihydro-5H-indolizino[6,7-b]indole-1,2-diyl]dimethanol]
H82 cells; Homo sapiens, NCI-H82, H82, 72 h, mean ± S.D. of 3 independent experiments
  IC50: 350 ± 280 nM
H211 cells [1]; Homo sapiens, NCI-H211, H211, 72 h, mean ± S.D. of 3 independent experiments
  IC50: 148 ± 1 nM
H526 cells [2]; Homo sapiens, NCI-H526, H526, 72 h, mean ± S.D. of 3 independent experiments
  IC50: 76 ± 26 nM
SCLC H526 cells; BO-1978 40 mg/kg QD×5 iv, FIG. 2A
  therapeutic effect on tumor size: more efficacious than etoposide, irinotecan and cisplatin
SCLC H526 cells
  body weight change: did not cause body weight lost
SCLC H526 cells; one out of 4 mice, FIG. 2C
  survival term: > 430 days
SCLC H211 cells [3]
  inhibition of tumor growth: more potent than the drugs used for comparison
H526 cells [4]
  cytotoxicity of co-treatment: enhanced the cytotoxicity
H211 cells [5]
  cytotoxicity of co-treatment: enhanced the cytotoxicity
SCLC H526 xenografts; 40 mg/kg Q2D×5 iv, n=5
  tumor growth suppression: significantly suppressed tumor growth
SCLC H526 xenografts; day 14, Q2D×5 iv
  mice with complete remission (CR): 4/5
  mice with tumor <100 mm3: 1/5
SCLC H211; 40 mg/kg QD×5 iv, n=5
  therapeutic efficacy, mono-drug comparison: more potent than irinotecan (alone)
SCLC H211; QD×5 iv
  day of tumor relapse: 18 days
  day tumor CR was seen: 14 days
SCLC H211 cells [6]
  effect on G2/M phase of cell cycle: induced severe G2/M arrest
  subG1 cells (apoptotic death): appearance of the subG1 cells at high doses
NSCLC cells
  cytotoxicity against cell growth of various NSCLC cells: significant cytotoxicity
[7]; xenograft and orthotopic lung tumor models
  body weight loss: negligible body weight loss
[7]; xenograft and orthotopic models
  therapeutic efficacy in nude mice bearing NSCLC: potent therapeutic efficacy
[8]
  toxicity in mice: does not cause apparent toxicity
PC9/gef B4 cells
  killing of cells with acquired gefitinib resistance: effectively kills

## Cn1ncnc1[C@H]1c2n[nH]c(=O)c3cc(F)cc(c23)N[C@@H]1c1ccc(F)cc1 [BMN 673, (8S,9R)-5-Fluoro-8-(4-fluorophenyl)-9-(1-methyl-1H-1,2,4-triazol-5-yl)-2,7,8,9-tetrahydro-3H-pyrido[4,3,2-de]phthalazin-3-one, reference compound]
SCLC H211 cells [6]
  effect on G2/M phase of cell cycle: delayed the progression of the G2/M phase
  subG1 cells (apoptotic death): did not induce subG1 cells

## N.N.[Cl][Pt][Cl] [Cisplatin, cis-diaminedichloroplatinum]
H82 cells; H82, 72 h, mean ± S.D. of 3 independent experiments
  IC50: 340 ± 80 nM
H211 cells [1]; H211, 72 h, mean ± S.D. of 3 independent experiments
  IC50: 570 ± 290 nM
H526 cells [2]; H526, 72 h, mean ± S.D. of 3 independent experiments
  IC50: 660 ± 250 nM
SCLC H526 cells
  day mice were sacrificed because tumor size was over 2,500 mm^3: 35 days
  body weight change: did not cause body weight lost
